Test results as given in patent US20240025906A1 (NEURON23, INC., priority 2022, published 2024).
pIC50, pKd: −log10 of the molar value. Like-named read-outs stand apart in the source and are kept apart here.

Legend:
TYK2 JH2 = molecular target: T1, TYK2 JH2 (Homo sapiens, UniProt P29597); assay: TYK2 JH2 binding assay (KINOMEscan KdELECT competitive binding); conditions: TYK2 JH2 domain
T1 construct: purchased DiscoverX (KINOMEscan KdELECT service); host or cells: E. coli BL21-derived (T7 phage display) or HEK-293
T1 sequence (P29597 589-875 limits assumed): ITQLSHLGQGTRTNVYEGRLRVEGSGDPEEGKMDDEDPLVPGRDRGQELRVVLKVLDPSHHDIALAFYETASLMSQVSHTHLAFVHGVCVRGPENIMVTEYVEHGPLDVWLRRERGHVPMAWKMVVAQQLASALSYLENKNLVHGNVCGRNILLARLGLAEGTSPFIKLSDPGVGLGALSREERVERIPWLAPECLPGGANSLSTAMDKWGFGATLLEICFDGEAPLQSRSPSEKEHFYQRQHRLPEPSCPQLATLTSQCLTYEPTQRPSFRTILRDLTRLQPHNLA
Method in brief: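 Beads carrying a biotinylated ligand were mixed with tagged JH2 kinase and compound (11 points, 3-fold steps, 0.9% DMSO) and shaken 1 h at room temperature. After washing, kinase was released with 0.5 μM untagged ligand over 30 min and measured by qPCR to derive Kd.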

[1] = test system: JAK1/TYK2 pSTAT5 (Tyr694/699) in THP-1 cell line; assay: IFNa-stimulated JAK1/TYK2 pSTAT5 (Tyr694/699) inhibition cellular assay, AlphaLISA; format: cell-based; conditions: Homo sapiens, THP-1 cells, AlphaLISA (Assay B)
Method in brief: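 THP-1, 2e4 cells/well, HBSS; cpd 1 h 37 °C (10000–0.04 nM final, 6-fold, 8 pt); IFNa 100 ng/mL added, 30 min; lyse, freeze −80 °C; pSTAT5 AlphaLISA, 615 nm; 4PL IC50, bottom fixed 0, slope −1.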

[2] = KINOMEscan KdELECT (Assay A), read-out: Biochemical TYK2_DiscoverX_JH2_BND_Kd
[3] = IFNa-stimulated, read-out: Cellular_THP1_IFNa-pSTATS_TYK2
[4] = DiscoverX KINOMEscan KdELECT (Assay A), read-out: Biochemical TYK2_DiscoverX_JH2_BND_Kd
[5] = KINOMEscan KdELECT (Assay A), read-out: Biochemical TYK2_JH2_Kd
[6] = IFNa-stimulated, read-out: Cellular THP1_IFNa-pSTATS_IC50
[7] = IFNa-stimulated pSTAT5 (Tyr694/699), read-out: Cellular_THP1_IFNa-pSTATS_TYK2

Compound | pKd (TYK2 JH2; [2]) | pIC50 [1, 3] | pKd (TYK2 JH2; [4]) | other results
CNc1ncc(C#Cc2cc3c(cn2)nnn3C)c2cc(NC(=O)C3CC3)ncc12 [Example 689, N-(5-((1-methyl-1H-[1,2,3]triazolo[4,5-c]pyridin-6-yl)ethynyl)-8-(methylamino)-2,7-naphthyridin-3-yl)cyclopropanecarboxamide] | ≥ 7.00 | ≥ 6.30 |  | 
CNc1ncc(C#Cc2ccc(Oc3ccn(C)n3)cc2)c2cc(NC(=O)C3CC3)ncc12 [Example 971, N-[8-(methylamino)-5-[2-[4-(1-methylpyrazol-3-yl)oxyphenyl]ethynyl]-2,7-naphthyridin-3-yl]cyclopropanecarboxamide] | ≥ 7.00 | ≥ 6.30 |  | 
CNc1ncc(-c2nc3cc(N4CCOC(C(F)F)C4)ccc3o2)c2cc(NC(=O)C3CC3)ncc12 (centres unmarked) [Example 329, N-(5-(5-(2-(difluoromethyl)morpholino)benzo[d]oxazol-2-yl)-8-(methylamino)-2,7-naphthyridin-3-yl)cyclopropanecarboxamide] |  | ≥ 6.30 | ≥ 7.00 | 
CNc1ncc(-c2nc3ccc(N4CCO[C@H](C)C4)cn3n2)c2cc(NC(=O)NC3CC3)ncc12 [Example 552, (R)-1-cyclopropyl-3-(8-(methylamino)-5-(6-(2-methylmorpholino)-[1,2,4]triazolo[1,5-a]pyridin-2-yl)-2,7-naphthyridin-3-yl)urea] |  | ≥ 6.30 | ≥ 7.00 | 
CNc1ncc(-c2nc3cc(N4CC5CC(CN(C(C)=O)C5)C4)ccc3o2)c2cc(NC(=O)C3CC3)ncc12 [Example 326, N-(5-(5-(7-acetyl-3,7-diazabicyclo[3.3.1]nonan-3-yl)benzo[d]oxazol-2-yl)-8-(methylamino)-2,7-naphthyridin-3-yl)cyclopropanecarboxamide] |  | ≥ 6.30 | ≥ 7.00 | 
CCn1c(C)nc2cc(C#Cc3cnc(NC)c4cnc(NC(=O)C5CC5)cc34)ccc21 [Example 762, N-(5-((1-ethyl-2-methyl-1H-benzo[d]imidazol-5-yl)ethynyl)-8-(methylamino)-2,7-naphthyridin-3-yl)cyclopropanecarboxamide] | ≥ 7.00 | ≥ 6.30 |  | 
CNc1ncc(-c2nc3c(COC)cccc3o2)c2cc(NC(=O)C3CC3)ncc12 [Example 201, N-(5-(4-(methoxymethyl)benzo[d]oxazol-2-yl)-8-(methylamino)-2,7-naphthyridin-3-yl)cyclopropanecarboxamide] |  | ≥ 6.30 | ≥ 7.00 | 
CNc1ncc(-c2ccn(Cc3ccccc3)n2)c2cc(NC(=O)C3CC3)ncc12 [Example 131, N-(5-(1-benzyl-1H-pyrazol-3-yl)-8-(methylamino)-2,7-naphthyridin-3-yl)cyclopropanecarboxamide] |  |  |  | pKd (TYK2 JH2; [5]): ≥ 7.00; pIC50 [1, 6]: < 6.30
CNc1ncc(C#Cc2cc3sc(C)cc3cn2)c2cc(NC(=O)C3CC3)ncc12 [Example 968, N-[8-(methylamino)-5-[2-(2-methylthieno[3,2-c]pyridin-6-yl)ethynyl]-2,7-naphthyridin-3-yl]cyclopropanecarboxamide] | ≥ 7.00 | ≥ 6.30 |  | 
CNc1ncc(C#Cc2ccccc2)c2cc(NC(=O)C3CC3)ncc12 [Example 137, N-(8-(methylamino)-5-(phenylethynyl)-2,7-naphthyridin-3-yl)cyclopropanecarboxamide] |  |  |  | pKd (TYK2 JH2; [5]): ≥ 7.00; pIC50 [1, 6]: ≥ 6.30
CNc1ncc(-c2nc3ccc(N4CCOCC4)cn3n2)c2cc(NC(=O)[C@H](C)F)ncc12 (single isomer, unassigned) [Example 533] |  | < 6.30 | ≥ 7.00 | 
CNc1ncc(-c2nc3cc(OC)ccc3o2)c2cc(NC(=O)[C@@H]3C[C@@H]3C(F)(F)F)ncc12 (racemic) [Example 396, N-(5-(5-methoxybenzo[d]oxazol-2-yl)-8-(methylamino)-2,7-naphthyridin-3-yl)-2-(trifluoromethyl)cyclopropane-1-carboxamide] |  | ≥ 6.30 | ≥ 7.00 | 
CNc1ncc(-c2nc3ccc(N4CCOCC4)cn3n2)c2cc(NC(=O)C3CC3)nnc12 [Example 885, N-(8-(methylamino)-5-(6-morpholino-[1,2,4]triazolo[1,5-a]pyridin-2-yl)pyrido[3,4-c]pyridazin-3-yl)cyclopropanecarboxamide] | ≥ 7.00 | ≥ 6.30 |  | 
CNc1ncc(C#Cc2nc3ccc(OC)cn3n2)c2cc(NC(=O)C3CC3)ncc12 [Example 676, N-(5-((6-methoxy-[1,2,4]triazolo[1,5-a]pyridin-2-yl)ethynyl)-8-(methylamino)-2,7-naphthyridin-3-yl)cyclopropanecarboxamide] | ≥ 7.00 | ≥ 6.30 |  | 
[2H]C([2H])([2H])n1c(C#Cc2cnc(NC)c3cnc(NC(=O)C4CC4)cc23)cnc1C [Example 902, N-(5-((2-methyl-1-(methyl-d3)-1H-imidazol-5-yl)ethynyl)-8-(methylamino)-2,7-naphthyridin-3-yl)cyclopropanecarboxamide] | ≥ 7.00 | ≥ 6.30 |  | 
CNc1ncc(C#Cc2ccc(COC)cn2)c2cc(NC(=O)C3CC3)ncc12 [Example 964, N-[5-[2-[5-(methoxymethyl)-2-pyridyl]ethynyl]-8-(methylamino)-2,7-naphthyridin-3-yl]cyclopropanecarboxamide] | ≥ 7.00 | ≥ 6.30 |  | 
CNc1ncc(-c2nc3ccc(N4CCC4)cn3n2)c2cc(NC(=O)C3CC3)ncc12 [Example 474, N-(5-(6-(azetidin-1-yl)-[1,2,4]triazolo[1,5-a]pyridin-2-yl)-8-(methylamino)-2,7-naphthyridin-3-yl)cyclopropanecarboxamide] |  | ≥ 6.30 | ≥ 7.00 | 
CNc1ncc(-c2nc3ccc(C(C)(C)O)cn3n2)c2cc(NC(=O)C3CC3)ncc12 [Example 1041] | ≥ 7.00 |  |  | pIC50 [1, 7]: ≥ 6.30
CNc1ncc(-c2ccc(C)o2)c2cc(NC(=O)C3CC3)ncc12 [Example 143, N-(8-(methylamino)-5-(5-methylfuran-2-yl)-2,7-naphthyridin-3-yl)cyclopropanecarboxamide] |  |  |  | pKd (TYK2 JH2; [5]): ≥ 7.00; pIC50 [1, 6]: ≥ 6.30
CNc1ncc(-c2nc3c(O)cccc3o2)c2cc(NC(=O)C3CC3)ncc12 [Example 215, N-(5-(4-hydroxybenzo[d]oxazol-2-yl)-8-(methylamino)-2,7-naphthyridin-3-yl)cyclopropanecarboxamide] |  | ≥ 6.30 | ≥ 7.00 | 
CNc1ncc(C#Cc2ccc3nc(C(C)(F)F)n(C)c3c2)c2cc(NC(=O)C3CC3)ncc12 [Example 773, N-(5-((2-(1,1-difluoroethyl)-1-methyl-1H-benzo[d]imidazol-6-yl)ethynyl)-8-(methylamino)-2,7-naphthyridin-3-yl)cyclopropanecarboxamide] | ≥ 7.00 | ≥ 6.30 |  | 
CNc1ncc(CC2CCOC2)c2cc(NC(=O)C3CC3)ncc12 (centres unmarked) [Example 80, N-(8-(methylamino)-5-((tetrahydrofuran-3-yl)methyl)-2,7-naphthyridin-3-yl)cyclopropanecarboxamide] |  |  |  | pKd (TYK2 JH2; [5]): ≥ 7.00; pIC50 [1, 6]: < 6.30
CNc1ncc(-c2ccccc2COC)c2cc(NC(=O)C3CC3)ncc12 [Example 119, N-(5-(2-(methoxymethyl)phenyl)-8-(methylamino)-2,7-naphthyridin-3-yl)cyclopropanecarboxamide] |  |  |  | pKd (TYK2 JH2; [5]): ≥ 7.00; pIC50 [1, 6]: < 6.30
CNc1ncc(-c2nc3cc(CS(C)(=O)=O)ccc3o2)c2cc(NC(=O)C3CC3)ncc12 [Example 257, N-(8-(methylamino)-5-(5-((methylsulfonyl)methyl)benzo[d]oxazol-2-yl)-2,7-naphthyridin-3-yl)cyclopropanecarboxamide] |  | ≥ 6.30 | ≥ 7.00 | 
CNc1ncc(-c2nc3ccc(N4CCOC(COC)C4)cn3n2)c2cc(NC(=O)C3CC3)ncc12 (centres unmarked) [Example 1022, N-(5-(6-(2-(methoxymethyl)morpholino)-[1,2,4]triazolo[1,5-a]pyridin-2-yl)-8-(methylamino)-2,7-naphthyridin-3-yl)cyclopropanecarboxamide] | ≥ 7.00 |  |  | pIC50 [1, 7]: ≥ 6.30
CNc1ncc(C#Cc2cc3ccc(OC)cn3n2)c2cc(NC(=O)C3CC3)ncc12 [Example 766, N-(5-((6-methoxypyrazolo[1,5-a]pyridin-2-yl)ethynyl)-8-(methylamino)-2,7-naphthyridin-3-yl)cyclopropanecarboxamide] | ≥ 7.00 | ≥ 6.30 |  | 
CNc1ncc(C#Cc2ccc(O[C@H]3CCOC3)cc2)c2cc(NC(=O)C3CC3)ncc12 [Example 691, (S)—N-(8-(methylamino)-5-((4-((tetrahydrofuran-3-yl)oxy)phenyl)ethynyl)-2,7-naphthyridin-3-yl)cyclopropanecarboxamide] | ≥ 7.00 | ≥ 6.30 |  | 
CNc1ncc(-c2nc3cc(N4CCO[C@@H](C)C4)ccc3o2)c2cc(NC(=O)C3CC3)ncc12 [Example 289, (S)—N-(8-(methylamino)-5-(5-(2-methylmorpholino)benzo[d]oxazol-2-yl)-2,7-naphthyridin-3-yl)cyclopropanecarboxamide] |  | ≥ 6.30 | ≥ 7.00 | 
